Results reported in patent publication US20100190755A1, “TETRACYCLINE COMPOUNDS FOR THE TREATMENT OF RHEUMATOID ARTHRITIS AND RELATED METHODS OF TREATMENT” (priority 2008, published 2010).
Converted amounts (≈) assume the structure as drawn.

Legend:
[1] = system: collagen-induced arthritis (CIA) in male DBA/1 mice; experiment: CIA model, Example 3 (cumulative scores vs untreated controls); format: in vivo; details: Mus musculus
Procedure: The CIA model data were acquired according to the following protocol: • 1. Male DBA/1 mice were anaesthetized by i.p. injection of ketamine/xylazine (1.25 mg/ml:0.25 mg/ml, 100 μl/mouse). • 2. Anaesthetized mice were immunized intradermally at the base of the tail with 0.1 or 0.2 ml of an emulsion composed of 100 or 200 μg bovine type II collagen in Complete Freund's Adjuvant (50 μl/spot x 2 or 4 spots). • 3. At day 21 after the immunization, mice received an intradermal boost of 100 μl of an emulsion composed of 100 μg bovine type II collagen in Incomplete Freund's Adjuvant (50 μl/spot x 2 spots) • 4. After onset of disease symptoms (usually 3-4 days after boost), tetracycline derivatives were administered daily into mice via intraperitoneal or oral routes for 8 to 15 days. Methotrexate (12 mg/kg/day) or dexmethasone (4 mg/kg/day) was used as a control for inflammation suppression. • 5. The disease severity was scored daily for 8-15 days after the appearance of the symptoms. Disease severity was graded as following: • a. Visual clinical score for the presence of inflammation in the fingers/toes of the forepaws and hindpaws: • 1. Erythema and mild swelling confined to the mid-foot (tarsals) or ankle joint • 2. Erythema and mild swelling extending from the ankle to the mid-foot • 3. Erythema and moderate swelling extending from the ankle to the metatarsal joints • 4. Erythema and severe swelling encompassing the ankle, foot, and digits. • b. Clinical swelling score for the presence of paw edema in the forepaws and hindpaws: • Paw thickness was measured daily by an engineering micrometer after isofluorane inhalation or ketamine/xylazine (1.25 mg/ml:0.25 mg/ml, 100 μl/mouse) i.p. injection.
Daily scores and paw swelling measurements for each treatment group of mice were added over the total observation period to obtain a cumulative score. Cumulative scores were compared between untreated controls and treated groups to determine tetracycline-induced inhibition.

[2] = system: E. coli ATCC25922 (tetracycline sensitive); experiment: E. coli MIC, broth micro-dilution per CLSI guidelines (Table 3); format: cell-based; details: for MIC: Escherichia coli, E. coli ATCC25922, cation-adjusted Mueller Hinton broth
E. coli 25922 = experiment: Antibacterial activity MIC, Gram- (Table 9); format: cell-based; details: Escherichia coli, CAMHB, 35° C., approximately 18 hr
Procedure: (§1) 2 mg of each compound is dissolved in 100 μl of DMSO. The solution is then added to cation-adjusted Mueller Hinton broth (CAMHB), which results in a final compound concentration of 200 μg per ml. The tetracycline compound solutions are diluted to 50 μL volumes, with a test compound concentration of 0.098 μg/ml. Optical density (OD) determinations are made from fresh log-phase broth cultures of the test strains. Dilutions are made to achieve a final cell density of 1×10^6 CFU/ml. At OD=1, cell densities for different genera should be approximately:
(§2) 50 μl of the cell suspensions are added to each well of microtiter plates. The final cell density should be approximately 5×10^5 CFU/ml. These plates are incubated at 35° C. in an ambient air incubator for approximately 18 hr. The plates are read with a microplate reader and are visually inspected when necessary. The MIC is defined as the lowest concentration of the tetracycline compound that inhibits growth.

[3] = system: collagen-induced arthritis (CIA) in male DBA/1 mice; experiment: Murine collagen-induced arthritis (CIA) model, Example 2; format: in vivo, mouse; details: for EC50 in inflammation suppression in CIA mice: i.p. daily
Procedure: Four non-antibacterial analogues of minocycline (J, W, AF and AT) were synthesized and tested in the murine model of the disease, collagen-induced arthritis (CIA) (See supra). Male DBA/1 mice were immunized intradermally with 200 μg of bovine type II collagen and boosted with collagen three weeks later. Minocycline and four non-antibacterial minocycline derivatives were administered i.p. beginning after disease onset. Paw thickness was measured and animals were scored daily.
(§3) • 1. Male DBA/1 mice were immunized i.d. with an emulsion of 200 μg bovine type II collagen in Complete Freund's Adjuvant. • 2. On day 21, mice received i.d. boost of 100 μg collagen in Incomplete Freund's Adjuvant • 3. Compounds were administered i.p. daily for 7 days starting from disease onset (day 3-4 after boost). • 4. Foot swelling was measured by an engineering micrometer and disease severity was scored accordingly (1, erythema and mild swelling confined to the tarsal or ankle joint; 2, erythema and mild swelling extending from the ankle to the mid-foot; 3, erythema and moderate swelling extending from the ankle to the metatarsal joints; 4, erythema and severe swelling encompassing the ankle, foot, and digits). • 5. Change (Δ) of paw thickness=sum of paw thickness from 4 paws of a mouse (experimental)−sum of baseline paw thickness from 4 paws of the same mouse. • 6. % inhibition=cumulative A paw thickness (disease group−compound-treated group)/cumulative A paw thickness (disease group)

S. aureus RN450 = experiment: Antibacterial activity MIC, Gram+ (Table 9); format: cell-based; details: Staphylococcus aureus, CAMHB, 35° C., approximately 18 hr
Procedure: as §1, §2

[4] = system: Protein synthesis (E. coli S30 Extract System); experiment: Protein synthesis inhibition, in vitro transcription/translation assay (E. coli S30 Extract System for Circular DNA); format: biochemical
[5] = Pharmacokinetics in rats after i.v. and oral dosing; format: in vivo; details: rat; for bioavailability: male, CD/IGS, after oral dosing of 5 mg/kg, read-out: PK Parameters (Rat) % F, fraction of absorption; for bioavailability / half-life: plasma; for half-life: male CD/IGS rats, 1 mg/kg i.v. or 5 mg/kg oral, read-out: PK Parameters (Rat) T1/2 (converted)
Procedure: Pre-cannulated (jugular vein and carotid artery for i.v. group and carotid artery for oral group) male CD/IGS rats (approximately 250 g) were used. Rats were fasted overnight prior to dosing with access to food restored 2 hours after dosing. Rats were administered with approximately 0.25 mL compound (1 mg/kg dose) for i.v. route (via jugular vein over 20 seconds) or 0.5 mL solution (5 mg/kg dose) orally. Blood (300 μL) was collected in tubes with EDTA anticoagulant at various time points, centrifuged and plasma collected and stored frozen at −20° C. Animals were euthanized by CO2 following the final blood collection. Plasma was extracted (0.1% trifluoroacetic acid in 67% acetonitrile/33% water) and levels of compound quantified by HPLC/MS against a standard curve.

[6] = system: cytokines (IL-1, IL-6, RANKL and MCP-1) and a matrix metalloproteinase (MMP-9); experiment: Paw extract biomarker ELISA, CIA mice: whole panel (statements in words); format: in vivo, mouse
Procedure: as §3
(§4) • 1. Paws were collected from mice after 5-7 days of dosing and dissected free of skin. • 2. The paws were then homogenized in ice-cold PBS (2 ml/4 paws/mouse) containing 1× protease inhibitor using a Polytron homogenizer. • 3. Debris and particles were removed from the homogenized samples by centrifugation. • 4. Liquid layers were collected for MMP-9, IL-1, IL-6, RANKL, MCP-1, and TNFα analysis using ELISA kits from R & D System.

IL-1 = experiment: Paw extract biomarker ELISA, CIA mice: IL-1; format: in vivo, mouse; details: paw extracts from CIA mice
Procedure: as §3, §4

MCP-1 = experiment: Paw extract biomarker ELISA, CIA mice: MCP-1; format: in vivo, mouse; details: paw extracts from CIA mice
Procedure: as §3, §4

IL-6 = experiment: Paw extract biomarker ELISA, CIA mice: IL-6; format: in vivo, mouse; details: paw extracts from CIA mice
Procedure: as §3, §4

RANKL = experiment: Paw extract biomarker ELISA, CIA mice: RANKL; format: in vivo, mouse; details: paw extracts from CIA mice
Procedure: as §3, §4

MMP-9 = experiment: Paw extract biomarker ELISA, CIA mice: MMP-9; format: in vivo, mouse; details: paw extracts from CIA mice
Procedure: as §3, §4

[7] = 25 mg/kg/day i.p., dosed after disease onset
[8] = day 1 of dosing, 25 mg/kg/day i.p.
[9] = day 2 of dosing, 25 mg/kg/day i.p.
[10] = day 3 of dosing, 25 mg/kg/day i.p.
[11] = day 4 of dosing, 25 mg/kg/day i.p.
[12] = day 5 of dosing, 25 mg/kg/day i.p.
[13] = day 6 of dosing, 25 mg/kg/day i.p.
[14] = day 7 of dosing, 25 mg/kg/day i.p.
[15] = day 8 of dosing, 25 mg/kg/day i.p.

| SMILES | inhibition in vivo at 25 mg/kg [1] | MIC [2] | MIC (E. coli 25922) | % Inhibition (Change in Paw Thickness) AVG [3, 7] | % Inhibition (Clinical Score) AVG [3, 7] | EC50 in inflammation suppression in CIA mice [3] | Change in Paw Thickness (mm) Mean [3, 8] | Change in Paw Thickness (mm) Mean [3, 9] | Change in Paw Thickness (mm) Mean [3, 10] | Change in Paw Thickness (mm) Mean [3, 11] | Change in Paw Thickness (mm) Mean [3, 12] | Change in Paw Thickness (mm) Mean [3, 13] | Change in Paw Thickness (mm) Mean [3, 14] | Change in Paw Thickness (mm) Mean [3, 15] | MIC (S. aureus RN450) | bioavailability [5] | half-life [5] | Percent level of Biomarker Tissue [c] Compared to Untreated Control, IL-1 AVG (IL-1) | Percent level of Biomarker Tissue [c] Compared to Untreated Control, MCP-1 AVG (MCP-1) | Percent level of Biomarker Tissue [c] Compared to Untreated Control, IL-6 AVG (IL-6) | other results |
| --- | --- | --- | --- | --- | --- | --- | --- | --- | --- | --- | --- | --- | --- | --- | --- | --- | --- | --- | --- | --- | --- |
| CN(C)c1cc(-c2cccn2C)c(O)c2c1C[C@H]1C[C@H]3CC(O)=C(C(N)=O)C(=O)[C@@]3(O)C(O)=C1C2=O [Compound AT] | 81% | > 64 µg/mL | > 64 µg/mL | 81% | 70% | 12 mg/kg/day i.p. | 0.94 mm | 0.57 mm | 0.55 mm | 0.11 mm | 0.05 mm | 0.27 mm | −0.01 mm | −0.08 mm | 1 µg/mL (≈ 2.03 µM) | 42% | 384 min | – | – | – | inhibition in vivo at 6 mg/kg ([1]; Dose 6 mg/kg): 45%; inhibition in vivo at 12 mg/kg ([1]; Dose 12 mg/kg): 49%; anti-bacterial activity compared to minocycline [2]: no anti-bacterial activity; Effects on reduction of paw swelling and clinical score compared to either minocycline or methotrexate ([3]; murine CIA model): greater; joint inflammation when administered after disease onset ([3]; murine CIA model): inhibited joint inflammation; IC50 [4]: > 100 µM; bio-available after oral dosing in rats ([5]; oral): bio-available; inhibition of inflammatory/osteoclastic cytokines (MMP-9, IL-1, IL-6, MCP-1, RANKL) in vivo [6]: better than minocycline |
| C[C@@H]1C[C@H]2[C@@H]3CCC4=CC(=O)C=C[C@]4(C)[C@@]3(F)[C@@H](O)C[C@]2(C)[C@@]1(O)C(=O)CO [Dexamethasone, dexamethasone, reference compound] | – | – | – | – | – | – | – | – | – | – | – | – | – | – | – | – | – | 16% | 5% | 4% | Percent level of Biomarker Tissue [c] Compared to Untreated Control, RANKL AVG (RANKL): 10%; Percent level of Biomarker Tissue [c] Compared to Untreated Control, MMP-9 AVG (MMP-9): 35%; % Inhibition (Change in Paw Thickness) AVG ([3]; 4 mg/kg): 82%; % Inhibition (Clinical Score) AVG ([3]; 4 mg/kg): 48%; Change in Paw Thickness (mm) Mean ([3]; day 1 of dosing, 4 mg/kg/day i.p.): 0.92 mm; Change in Paw Thickness (mm) Mean ([3]; day 2 of dosing, 4 mg/kg/day i.p.): 0.57 mm; Change in Paw Thickness (mm) Mean ([3]; day 3 of dosing, 4 mg/kg/day i.p.): 0.47 mm; Change in Paw Thickness (mm) Mean ([3]; day 4 of dosing, 4 mg/kg/day i.p.): −0.07 mm; Change in Paw Thickness (mm) Mean ([3]; day 5 of dosing, 4 mg/kg/day i.p.): 0.03 mm; Change in Paw Thickness (mm) Mean ([3]; day 6 of dosing, 4 mg/kg/day i.p.): −0.13 mm; Change in Paw Thickness (mm) Mean ([3]; day 7 of dosing, 4 mg/kg/day i.p.): 0.04 mm; Change in Paw Thickness (mm) Mean ([3]; day 8 of dosing, 4 mg/kg/day i.p.): −0.21 mm |
| CN(C)c1ccc(O)c2c1C[C@H]1C[C@H]3[C@H](N(C)C)C(O)=C(C(N)=O)C(=O)[C@@]3(O)C(O)=C1C2=O [Minocycline, minocycline, reference compound] | 22% | 1 µg/mL (≈ 2.19 µM) | 1 µg/mL (≈ 2.19 µM) | 22% | 18% | >50 mg/kg/day i.p. | 0.74 mm | 0.72 mm | 0.78 mm | 0.86 mm | 0.93 mm | 1.07 mm | 0.92 mm | 1.18 mm | 0.06 µg/mL (≈ 0.131 µM) | 31% | 216 min | 119% | 102% | 114% | Percent level of Biomarker Tissue [c] Compared to Untreated Control, RANKL AVG (RANKL): 99%; Percent level of Biomarker Tissue [c] Compared to Untreated Control, MMP-9 AVG (MMP-9): 104%; inhibition of the disease (CIA) ([3]; 50 mg/kg/day i.p.): 45% |
